Experimental data published in US12297285B2 (Orna Therapeutics, Inc., priority 2022, dated 2025).

Columns and labels:
Test in all cases: IRES screening, Gaussia luciferase from LNP-oRNA (Table 27)
Conditions in all cases: Gaussia luciferase luminescence in supernatant 48 hours after LNP-oRNA transfection, normalized to control (caprine kobuvirus IRES)
[1] = system: activated primary human T cells
[2] = system: primary human skeletal myotubes
[3] = system: primary human hepatocytes

CCCCC(C)CCC(=O)OCCCCCCN(CCCCCCOC(=O)CCC(C)CCCC)CCCn1ccnc1 (stereo not drawn) [Lipid 10a-112]
[Mod] T Fold Change [1]: 0.637 Fold Change | [Mod] Fold Change Myo [2]: 0.3711 Fold Change | [Mod] PHH Fold Change [3]: 0.8075 Fold Change

CCCCCCCCC(CCCCCC)C(=O)OCCCCCCN(CCCCCCOC(=O)C(CCCCCC)CCCCCCCC)Cc1nccn1C (stereo not drawn) [Lipid 10a-128]
[Mod] T Fold Change [1]: 0.5837 Fold Change | [Mod] Fold Change Myo [2]: 0.4893 Fold Change | [Mod] PHH Fold Change [3]: 1.021 Fold Change

CCCCC(C)CCC(=O)OCCCCCCC(CCCCCCOC(=O)CCC(C)CCCC)OC(=O)CCCn1ccnc1 (stereo not drawn) [Lipid 10a-113]
[Mod] T Fold Change [1]: 0.4373 Fold Change | [Mod] Fold Change Myo [2]: 0.3171 Fold Change | [Mod] PHH Fold Change [3]: 0.8279 Fold Change

CCCCC(CC)CCC(=O)OCCCCCCN(CCCCCCOC(=O)CCC(CC)CCCC)CCCn1ccnc1C (stereo not drawn) [Lipid 10a-110]
[Mod] T Fold Change [1]: 0.5133 Fold Change | [Mod] Fold Change Myo [2]: 0.2424 Fold Change | [Mod] PHH Fold Change [3]: 0.7175 Fold Change

CCCCCCCCCN(CCCCn1ccnc1)C(CCCCCCCCC(=O)OCC(CCCC)CCCCCC)CCCCCCCCC(=O)OCC(CCCC)CCCCCC (stereo not drawn) [Lipid 10a-148]
[Mod] T Fold Change [1]: 0.02909 Fold Change | [Mod] Fold Change Myo [2]: 0.03913 Fold Change | [Mod] PHH Fold Change [3]: 0.7368 Fold Change

Cc1nccn1CCCC(=O)OC(CCCCCCOC(=O)CC(C)CCCC(C)C)CCCCCCOC(=O)CC(C)CCCC(C)C (stereo not drawn) [Lipid 10a-117]
[Mod] T Fold Change [1]: 0.04612 Fold Change | [Mod] Fold Change Myo [2]: 0.04273 Fold Change | [Mod] PHH Fold Change [3]: 0.4258 Fold Change

CCCCCCCCCOC(=O)CCCCCCCN(CCCCCCCC(=O)OC(CCCCCCCC)CCCCCCCC)Cc1nccn1C [Lipid 10a-133]
[Mod] T Fold Change [1]: 0.03004 Fold Change | [Mod] Fold Change Myo [2]: 0.03933 Fold Change | [Mod] PHH Fold Change [3]: 0.541 Fold Change

CCCCC(CC)CCC(=O)OCCCCCCN(CCCCCCOC(=O)CCC(CC)CCCC)CCCn1ccnc1 (stereo not drawn) [Lipid 10a-109]
[Mod] T Fold Change [1]: 0.6261 Fold Change | [Mod] Fold Change Myo [2]: 0.2492 Fold Change | [Mod] PHH Fold Change [3]: 0.8533 Fold Change

Cc1nccn1CCCN(CCCCCCCC(=O)OCCC(C)CCC(C)C)CCCCCCCC(=O)OCCC(C)CCC(C)C (stereo not drawn) [Lipid 10a-102]
[Mod] T Fold Change [1]: 0.031 Fold Change | [Mod] Fold Change Myo [2]: 0.04469 Fold Change | [Mod] PHH Fold Change [3]: 0.5141 Fold Change

CCCCCCCCCCCCCCN(Cc1nccn1C)C(CCCCCCCCC(=O)OCC(CCCC)CCCCCC)CCCCCCCCC(=O)OCC(CCCC)CCCCCC (stereo not drawn) [Lipid 10a-136]
[Mod] T Fold Change [1]: 0.04232 Fold Change | [Mod] Fold Change Myo [2]: 0.04786 Fold Change | [Mod] PHH Fold Change [3]: 0.4286 Fold Change

CCCCCCCCC(CC)OC(=O)CCCCCCCN(CCCCCCCC(=O)OC(CCCCCCCC)CCCCCCCC)CCCn1ccnc1C (stereo not drawn) [Lipid 10a-138]
[Mod] T Fold Change [1]: 0.6378 Fold Change | [Mod] Fold Change Myo [2]: 0.3723 Fold Change | [Mod] PHH Fold Change [3]: 0.6157 Fold Change

CCCCCCCCCN(CCCCn1ccnc1C)C(CCCCCCCCC(=O)OCC(CCCC)CCCCCC)CCCCCCCCC(=O)OCC(CCCC)CCCCCC (stereo not drawn) [Lipid 10a-147]
[Mod] T Fold Change [1]: 0.03662 Fold Change | [Mod] Fold Change Myo [2]: 0.04264 Fold Change | [Mod] PHH Fold Change [3]: 0.5594 Fold Change

CC(C)=CCCC(C)CC(=O)OCCCCCCN(CCCCCCOC(=O)CC(C)CCC=C(C)C)CCCn1ccnc1C (stereo not drawn) [Lipid 10a-125]
[Mod] T Fold Change [1]: 0.6418 Fold Change | [Mod] Fold Change Myo [2]: 0.3827 Fold Change | [Mod] PHH Fold Change [3]: 0.6492 Fold Change

CCCCC(C)CCC(=O)OCCCCCCC(CCCCCCOC(=O)CCC(C)CCCC)OC(=O)CCCn1ccnc1C (stereo not drawn) [Lipid 10a-115]
[Mod] T Fold Change [1]: 0.04693 Fold Change | [Mod] Fold Change Myo [2]: 0.05074 Fold Change | [Mod] PHH Fold Change [3]: 0.425 Fold Change

CC(C)=CCCC(C)CC(=O)OCCCCCCC(CCCCCCOC(=O)CC(C)CCC=C(C)C)OC(=O)CCCn1ccnc1 (stereo not drawn) [Lipid 10a-118]
[Mod] T Fold Change [1]: 0.4562 Fold Change | [Mod] Fold Change Myo [2]: 0.1546 Fold Change | [Mod] PHH Fold Change [3]: 0.6669 Fold Change

CCCCCCCCC(CCCCCC)C(=O)OCCCCCCN(CCCCCCOC(=O)C(CCCCCC)CCCCCCCC)CCC(C)n1ccnc1 (stereo not drawn) [Lipid 10a-130]
[Mod] T Fold Change [1]: 0.06076 Fold Change | [Mod] Fold Change Myo [2]: 0.04058 Fold Change | [Mod] PHH Fold Change [3]: 0.5728 Fold Change

CCCCC(CC)CCC(=O)OCCCCCCC(CCCCCCOC(=O)CCC(CC)CCCC)OC(=O)CCCn1ccnc1C (stereo not drawn) [Lipid 10a-111]
[Mod] T Fold Change [1]: 0.4651 Fold Change | [Mod] Fold Change Myo [2]: 0.2223 Fold Change | [Mod] PHH Fold Change [3]: 0.787 Fold Change

Cc1nccn1CCCC(=O)OC(CCCCCCCC(=O)OCCC(C)CCC(C)C)CCCCCCCC(=O)OCCC(C)CCC(C)C (stereo not drawn) [Lipid 10a-103]
[Mod] T Fold Change [1]: 0.03951 Fold Change | [Mod] Fold Change Myo [2]: 0.04558 Fold Change | [Mod] PHH Fold Change [3]: 0.6471 Fold Change

CCCCCCCCC(CCCCCC)C(=O)OCCCCCCN(CCCn1ccnc1C)CC(O)CCCCOC(=O)C(CCCCCC)CCCCCCCC (stereo not drawn) [Lipid 10a-149]
[Mod] T Fold Change [1]: 0.02893 Fold Change | [Mod] Fold Change Myo [2]: 0.03919 Fold Change | [Mod] PHH Fold Change [3]: 0.7118 Fold Change

CC(C)=CCC/C(C)=C/C(=O)OCCCCCCC(CCCCCCOC(=O)/C=C(\C)CCC=C(C)C)OC(=O)CCCn1ccnc1C (stereo not drawn) [Lipid 10a-121]
[Mod] T Fold Change [1]: 1.029 Fold Change | [Mod] Fold Change Myo [2]: 0.6276 Fold Change | [Mod] PHH Fold Change [3]: 0.9977 Fold Change

CC(CCOC(=O)CCCCCCCCC(CCCCCCCCC(=O)OCCC(C)CC(C)(C)C)OC(=O)CCCn1ccnc1)CC(C)(C)C (stereo not drawn) [Lipid 10a-105]
[Mod] T Fold Change [1]: 0.329 Fold Change | [Mod] Fold Change Myo [2]: 0.2496 Fold Change | [Mod] PHH Fold Change [3]: 0.642 Fold Change

CC(C)CCCC(C)CC(=O)OCCCCCCC(CCCCCCOC(=O)CC(C)CCCC(C)C)OC(=O)CCCn1ccnc1 (stereo not drawn) [Lipid 10a-116]
[Mod] T Fold Change [1]: 0.03074 Fold Change | [Mod] Fold Change Myo [2]: 0.03921 Fold Change | [Mod] PHH Fold Change [3]: 0.5299 Fold Change

CC(C)CCC(COC(=O)CCCCCCCC(CCCCCCCC(=O)OCC(CCC(C)C)C(C)C)OC(=O)CCCn1ccnc1)C(C)C (stereo not drawn) [Lipid 10a-97]
[Mod] T Fold Change [1]: 0.3532 Fold Change | [Mod] Fold Change Myo [2]: 0.2602 Fold Change | [Mod] PHH Fold Change [3]: 1.163 Fold Change

CC(C)=CCC/C(C)=C/C(=O)OCCCCCCN(CCCCCCOC(=O)/C=C(\C)CCC=C(C)C)CCCn1ccnc1 [Lipid 10a-126]
[Mod] T Fold Change [1]: 0.06647 Fold Change | [Mod] Fold Change Myo [2]: 0.05793 Fold Change | [Mod] PHH Fold Change [3]: 0.6456 Fold Change

CCCCC/C=C\C/C=C\CCCCCCCC(=O)OCC(COC(=O)CCC(OCCCCCCCC)OCCCCCCCC)COC(=O)OCCCn1ccnc1 (stereo not drawn) [Lipid 10a-140]
[Mod] T Fold Change [1]: 0.3995 Fold Change | [Mod] Fold Change Myo [2]: 0.1601 Fold Change | [Mod] PHH Fold Change [3]: 0.7154 Fold Change

CCCCCCCCCN(CCn1ccnc1C)C(CCCCCCCCC(=O)OCC(CCCC)CCCCCC)CCCCCCCCC(=O)OCC(CCCC)CCCCCC (stereo not drawn) [Lipid 10a-145]
[Mod] T Fold Change [1]: 0.0263 Fold Change | [Mod] Fold Change Myo [2]: 0.03927 Fold Change | [Mod] PHH Fold Change [3]: 0.6359 Fold Change
